Assay results from article PMC10600165 (Nature Communications, 2023).

Target: HK68 (human A/H3N2 HA) (Influenza A virus (A/Hong Kong/1/1968(H3N2)), UniProt Q91MA7)
Format: binding

Chain of HK68 (human A/H3N2 HA) (Influenza A virus (A/Hong Kong/1/1968(H3N2)), UniProt Q91MA7) (Q91MA7 17-530 limits assumed): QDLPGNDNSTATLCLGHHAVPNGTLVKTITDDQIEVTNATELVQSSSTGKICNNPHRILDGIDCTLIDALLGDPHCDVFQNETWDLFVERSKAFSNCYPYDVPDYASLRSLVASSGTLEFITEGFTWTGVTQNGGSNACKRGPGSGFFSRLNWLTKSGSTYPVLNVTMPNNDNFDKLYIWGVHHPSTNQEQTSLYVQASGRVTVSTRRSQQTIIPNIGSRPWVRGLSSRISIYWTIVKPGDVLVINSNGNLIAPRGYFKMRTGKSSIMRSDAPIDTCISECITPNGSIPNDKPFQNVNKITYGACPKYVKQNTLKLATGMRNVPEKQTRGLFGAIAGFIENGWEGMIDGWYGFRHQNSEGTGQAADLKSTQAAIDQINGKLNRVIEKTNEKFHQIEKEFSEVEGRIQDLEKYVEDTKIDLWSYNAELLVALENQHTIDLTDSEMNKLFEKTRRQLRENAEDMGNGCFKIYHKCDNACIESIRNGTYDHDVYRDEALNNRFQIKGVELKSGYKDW

CC(=O)N[C@H]1[C@H](OCCCCCNC(=O)CCCC[C@@H]2SC[C@@H]3NC(=O)N[C@@H]32)O[C@H](CO)[C@@H](O[C@@H]2O[C@H](CO[C@]3(C(=O)O)C[C@H](OC(C)=O)[C@@H](NC(C)=O)[C@H]([C@H](O)[C@H](O)CO)O3)[C@H](O)[C@H](O)[C@H]2O)[C@@H]1O [compound 6]
glycan microarray, fluorescence: specific for 4-O-acetylated Neu5Ac and does not depend on linkage type
